In brackets after ≈: the same amount, converted by molar mass. Structures can show the parent of a compound that is named as a salt.
Test: physchem

Row | SMILES | solubility [µg/mL]
1 | O=C(O)c1ccc2c3c1cccc3c(=O)n1c3ccccc3nc21 [STO-609, 7-oxo-7H-benzimidazo[2,1-a]benz[de]isoquinoline-3-carboxylic acid, reference compound] | 60 (≈ 191 µM)
2 | O=C(O)c1ccc(-c2ccncn2)cc1C1CCCC1 [compound 56, 2-Cyclopentyl-4-(pyrimidin-4-yl)benzoic Acid] | 10.6 (≈ 39.5 µM)
3 | O=C(O)c1ccc(-c2ccnc(Nc3ccccc3)n2)cc1C1CCCC1 [compound 62, 2-Cyclopentyl-4-(2-(phenylamino)pyrimidin-4-yl)benzoic Acid Hydrochloride] | 19.4

Source: PMC8365604 (Journal of Medicinal Chemistry, 2021)
